{"source": "patent US11708357B2", "about": "“Crystal form of pyrrolidinyl urea derivative and application thereof” (ZHANGZHOU PIEN TZE HUANG PHARMACEUTICAL CO., LTD., priority 2020, dated 2023)", "key": {"[1]": {"target": "T1, CYP2C9 (Homo sapiens, UniProt P11712)", "T1 construct": "from tissue; host or cells: human liver microsomes", "T1 sequence (P11712 whole entry)": "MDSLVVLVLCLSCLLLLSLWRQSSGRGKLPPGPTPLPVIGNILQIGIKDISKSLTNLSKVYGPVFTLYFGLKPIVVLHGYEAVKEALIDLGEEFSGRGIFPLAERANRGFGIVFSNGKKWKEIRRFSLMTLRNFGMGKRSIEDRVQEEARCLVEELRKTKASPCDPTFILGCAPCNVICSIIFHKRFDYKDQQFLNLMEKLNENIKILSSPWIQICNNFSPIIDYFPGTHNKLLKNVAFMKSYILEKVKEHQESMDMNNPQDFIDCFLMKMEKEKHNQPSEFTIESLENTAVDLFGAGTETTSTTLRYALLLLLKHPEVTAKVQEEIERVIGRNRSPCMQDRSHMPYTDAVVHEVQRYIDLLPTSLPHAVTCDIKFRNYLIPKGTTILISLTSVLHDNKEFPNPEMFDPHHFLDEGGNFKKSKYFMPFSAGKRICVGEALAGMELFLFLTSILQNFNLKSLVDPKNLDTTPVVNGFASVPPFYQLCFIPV", "experiment": "Cytochrome P450 isozyme inhibitory activity test, CYP2C9", "assay_type": "in vitro ADME", "settings": "liver microsomes; human liver microsome", "method": "(§1) The inhibitory activities of the test compound on different subtypes of human cytochrome P450 isozymes were determined. The test compound, standard inhibitor (100× final concentration), and a mixed substrate working solution were prepared; the microsome frozen in −80° C. refrigerator was thawed. […]"}, "[2]": {"experiment": "Metabolic stability in human liver microsomes", "assay_type": "in vitro ADME", "settings": "pH 7.4, 0.5 mg protein/mL, read-out: Intrinsic clearance rate of liver microsomes, Human", "method": "The metabolic stability of the test compound in human and rat liver microsomes was tested.\nTest compound (10 mM), Testosterone (reference compound, 10 mM), Diclofenac (reference compound, 10 mM) and Propafenone (reference compound, 10 mM).\n1. 100 mM potassium phosphate buffer (pH 7.4).\n1. Intermediate solution: 45 μL of DMSO (with 450 μL of 1:1 methanol/water) was used to dilute 5 μL of the sample for test compound or reference compound.\n2. Working solution: 450 μL of 100 mM potassium phosphate buffer was used to dilute the intermediate solution.\n10 μL of the working solution of the test compound or reference compound was added to all plates (T0, T5, T10, T20, T30, T60, and NCF60).\n680 μL of liver microsome solution was added to each well of 96-well plates, then 80 μL was added to each well of the plates, and the plates were placed at 37° C. for pre-incubation for approximately 10 minutes.\n10 μL of 100 mM potassium phosphate buffer was added to each well of the NCF60 plate.\nAfter the pre-incubation, 90 μL NADPH regeneration system working solution was added to each well of the 96-well plates, and then 10 μL was added to each well of the plates to initiate the reaction.\nIncubation for an appropriate time (such as 5, 10, 20, 30, and 60 minutes). […]\nThe half-life T1/2 and the intrinsic clearance rate by liver microsome Clint(mic) were calculated by the following formulas: Ct=Cij·e^−k^s^·i • when […]"}, "[3]": {"target": "T2, CYP2D6 (Homo sapiens, UniProt P10635)", "T2 construct": "from tissue; host or cells: human liver microsomes", "T2 sequence (P10635 whole entry)": "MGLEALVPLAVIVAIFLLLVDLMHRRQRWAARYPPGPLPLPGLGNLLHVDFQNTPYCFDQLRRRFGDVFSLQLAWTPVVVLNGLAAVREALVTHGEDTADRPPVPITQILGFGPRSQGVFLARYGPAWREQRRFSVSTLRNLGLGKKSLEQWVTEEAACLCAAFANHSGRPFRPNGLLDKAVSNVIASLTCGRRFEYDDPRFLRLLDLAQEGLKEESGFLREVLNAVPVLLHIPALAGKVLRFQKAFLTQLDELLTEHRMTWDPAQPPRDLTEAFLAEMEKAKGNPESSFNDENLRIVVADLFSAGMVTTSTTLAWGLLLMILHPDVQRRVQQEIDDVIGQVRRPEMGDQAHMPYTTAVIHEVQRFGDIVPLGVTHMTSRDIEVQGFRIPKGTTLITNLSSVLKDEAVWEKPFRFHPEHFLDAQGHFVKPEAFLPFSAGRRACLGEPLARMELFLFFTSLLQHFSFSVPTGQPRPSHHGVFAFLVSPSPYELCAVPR", "experiment": "Cytochrome P450 isozyme inhibitory activity test, CYP2D6", "assay_type": "in vitro ADME", "settings": "liver microsomes; human liver microsome", "method": "as §1"}, "[4]": {"target": "T3, TrkA (Homo sapiens, UniProt P04629)", "T3 construct": "purchased Invitrogen PV4114", "T3 sequence (P04629 33-796)": "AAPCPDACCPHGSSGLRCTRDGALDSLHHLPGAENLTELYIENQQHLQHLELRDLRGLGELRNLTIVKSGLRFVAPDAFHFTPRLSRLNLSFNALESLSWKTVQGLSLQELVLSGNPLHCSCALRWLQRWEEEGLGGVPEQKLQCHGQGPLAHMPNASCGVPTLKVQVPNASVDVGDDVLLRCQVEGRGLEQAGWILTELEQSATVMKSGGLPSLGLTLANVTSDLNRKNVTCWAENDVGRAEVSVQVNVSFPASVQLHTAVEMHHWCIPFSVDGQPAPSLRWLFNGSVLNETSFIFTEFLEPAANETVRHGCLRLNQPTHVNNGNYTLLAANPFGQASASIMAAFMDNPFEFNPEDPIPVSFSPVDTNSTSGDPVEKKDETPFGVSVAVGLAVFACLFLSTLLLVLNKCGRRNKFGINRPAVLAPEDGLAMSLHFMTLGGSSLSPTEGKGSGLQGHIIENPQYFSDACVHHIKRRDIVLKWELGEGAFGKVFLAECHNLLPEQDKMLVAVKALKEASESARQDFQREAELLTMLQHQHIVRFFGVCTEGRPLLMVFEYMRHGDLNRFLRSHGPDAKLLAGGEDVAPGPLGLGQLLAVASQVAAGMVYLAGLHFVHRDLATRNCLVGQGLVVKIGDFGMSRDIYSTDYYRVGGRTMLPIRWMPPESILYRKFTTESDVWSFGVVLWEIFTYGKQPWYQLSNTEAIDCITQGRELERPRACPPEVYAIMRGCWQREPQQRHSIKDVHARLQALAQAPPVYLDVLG", "experiment": "TrkA enzyme activity test (HTRF)", "assay_type": "biochemical", "settings": "0.5 nM TrkA kinase, 90 μM ATP, 23° C. 90 minutes", "method": "TK detection kit Cisbio-62TK0PEJ\n50 mM Hepes (pH 7.5), 5 mM MgCl2 (magnesium chloride), 0.01 mM orthovanadate (sodium vanadate), 1% BSA (bovine serum albumin), 1 mM (dithiothreitol)\nThis experiment used Cisbio's homogeneous time-resolved fluorescence resonance energy transfer (HTRF® method) for activity test. In the test plate, the enzyme, biotin-labeled peptide substrate, ATP, and test compound were mixed, and incubated for reaction. After the reaction, ethylenediaminetetraacetic acid was added to terminate the reaction; at the same time, Eu-labeled antibody and streptavidin-labeled XL665 were added for reaction and detection. The data were expressed by the readings of the fluorescence signal at 665 nm and 620 nm, where a high ratio of 665 nm/620 nm indicated higher activity, and a low ratio of 665 nm/620 nm indicated inhibition of activity.\n1. […]\n2. […] 10 μL of stop solution containing 20 mM EDTA, 1.34 nM phosphorylated substrate antibody, and 100 nM streptavidin-labeled fluorescent molecule XL-665 was then added, incubated at 23° C. for 60 minutes; the signal was read with Envision;\n3. The inhibition rate of the compound was calculated from the data read by the instrument, and the IC50 value was calculated using the mode 205 in XLFIT5 of IDBS."}}}
{"compound": "COCCN1C[C@@H](n2ccc(F)c2)[C@H](NC(=O)Nc2c(C)c(-c3cnc(C4(F)COC4)nc3)nn2-c2ccccc2)C1", "note": "[Compound of formula (I)]", "values": [{"measurement": "IC50 at 10 min", "setting": "[1]", "value": 39.1, "unit": "µM"}, {"measurement": "CLint scaled", "setting": "[2]", "value": 51.7, "unit": "mL/min/kg"}, {"measurement": "IC50 at 10 min", "setting": "[3]", "value": 40.6, "unit": "µM"}, {"measurement": "IC50", "setting": "[4]", "value": 0.00056, "unit": "µM"}]}
